From ChEMBL document CHEMBL4387771, “Discovery of 1,2,3-triazole-based fibroblast growth factor receptor modulators” (Bioorg Med Chem Lett, 2019) come the findings set out here.

One may read the clearance as the rate of elimination divided by the concentration. Low readings indicate a low capacity for elimination, high ones a high capacity for elimination. As a reminder, the Kp is tissue or fluid exposure divided by exposure in the circulation. As usually defined, the logP is a log measure of how a compound divides between an organic and an aqueous phase. The AUC is the area under the concentration-time curve, a measure of exposure. A higher AUC goes with high exposure. Broadly, the bioavailability is the share of a dose that reaches the circulation, judged against a reference dose that is usually intravenous. Higher therefore signals much systemic uptake.

Structures are written as SMILES. Active and inactive are the calls of the source. No cut-off for these calls is given here.

System in the first data set: not listed separately
The data set can be described thus: Clearance in Sprague-Dawley rat at 3 mg/kg, iv. In kind it is ADME, organism-based. To be noted: in vivo.
For `Cc1c(COc2ncc(Cl)cn2)nnn1C1CCN(CC2CC2)CC1`, the clearance was 10 mL/min/kg.

A further data set deals with CYP3A4 (Homo sapiens, UniProt P08684). Put plainly: Inhibition of CYP3A4 in human liver microsomes assessed as enzyme residual activity at 100 uM measured after 30 mins relative to control. In kind it is ADME. To be noted: read-out: Activity. In general terms: Liver microsomes are a subcellular fraction often used to study metabolism.
Sequence of CYP3A4 (P08684 whole entry): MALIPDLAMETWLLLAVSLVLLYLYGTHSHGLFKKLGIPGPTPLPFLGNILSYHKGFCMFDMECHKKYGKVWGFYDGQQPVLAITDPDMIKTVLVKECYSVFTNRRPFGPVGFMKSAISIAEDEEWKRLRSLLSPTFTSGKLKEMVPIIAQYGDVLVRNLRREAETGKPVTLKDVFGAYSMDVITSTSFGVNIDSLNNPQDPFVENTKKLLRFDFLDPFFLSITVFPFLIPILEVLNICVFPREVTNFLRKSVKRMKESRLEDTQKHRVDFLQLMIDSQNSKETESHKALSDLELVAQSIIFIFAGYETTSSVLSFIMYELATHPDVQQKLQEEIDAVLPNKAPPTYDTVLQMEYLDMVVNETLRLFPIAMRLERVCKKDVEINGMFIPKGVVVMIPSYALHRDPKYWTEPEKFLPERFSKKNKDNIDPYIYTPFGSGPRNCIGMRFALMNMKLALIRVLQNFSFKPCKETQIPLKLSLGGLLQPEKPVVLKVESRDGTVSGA
For `Cc1ccc(OCc2cn(C3CCN(CC4CC4)CC3)nn2)nn1`, the activity at 0.5 h, 100 µM is 100%.

As to `Cc1cnc(OCc2cn(C3CCN(Cc4ccccc4)CC3)nn2)nc1`, the activity at 0.5 h, 100 µM stood at 100%.

Take `Cc1ccc(OCc2cn(C3CCN(Cc4ccccc4)CC3)nn2)nn1`: the activity at 0.5 h, 100 µM was determined as 100%.

For the molecule `Cc1nc(OCc2cn(C3CCN(Cc4ccccc4)CC3)nn2)nc(C)c1N`, the activity at 0.5 h, 100 µM is 19%.

For the molecule `Cc1cnc(OCc2cn(C3CCN(CC4CC4)CC3)nn2)nc1`, the activity at 0.5 h, 100 µM was 100%.

Consider `Clc1cnc(OCc2cn(C3CCN(Cc4ccccc4)CC3)nn2)nc1`, for which the activity at 0.5 h, 100 µM is 99%.

On to `Cc1nc(OCc2cn(C3CCN(CC4CC4)CC3)nn2)nc(C)c1N`, for which the activity at 0.5 h, 100 µM stood at 100%.

`Cc1nc(OCC(=O)N(C)C2CCN(Cc3ccccc3)CC2)nc(C)c1N`: the activity at 0.5 h, 100 µM came out at 60%.

Take `Cc1c(COc2ncc(Cl)cn2)nnn1C1CCN(CC2CC2)CC1`: the activity at 0.5 h, 100 µM amounted to 94%.

With `Clc1cnc(OCc2cn(C3CCN(CC4CC4)CC3)nn2)nc1`, the activity at 0.5 h, 100 µM was determined as 100%.

System in the next data set: not listed separately
The data set can be described thus: Brain to plasma permeability coefficient, Kp of the compound in Sprague-Dawley rat at 3 mg/kg, iv measured after 1 hr. In kind it is ADME, organism-based. The conditions noted are these: brain and plasma.
In the case of `Cc1c(COc2ncc(Cl)cn2)nnn1C1CCN(CC2CC2)CC1`, the Kp at 1 h was determined as 1.3.

A further data set deals with Fibroblast growth factor receptor 1 (Rattus norvegicus) (UniProt Q04589). Put plainly: Modulation of FGFR in Wistar rat neuronal cells assessed as protection against glutamate-induced toxicity at 10 uM pretreated for 24 hrs followed by glutamate-stimulation and measured after 24 hrs in presence of FGFR1 inhibitor PD166866 by CCK8 assay. In kind it is cell-based.
Sequence of Fibroblast growth factor receptor 1 (Rattus norvegicus) (Q04589 whole entry): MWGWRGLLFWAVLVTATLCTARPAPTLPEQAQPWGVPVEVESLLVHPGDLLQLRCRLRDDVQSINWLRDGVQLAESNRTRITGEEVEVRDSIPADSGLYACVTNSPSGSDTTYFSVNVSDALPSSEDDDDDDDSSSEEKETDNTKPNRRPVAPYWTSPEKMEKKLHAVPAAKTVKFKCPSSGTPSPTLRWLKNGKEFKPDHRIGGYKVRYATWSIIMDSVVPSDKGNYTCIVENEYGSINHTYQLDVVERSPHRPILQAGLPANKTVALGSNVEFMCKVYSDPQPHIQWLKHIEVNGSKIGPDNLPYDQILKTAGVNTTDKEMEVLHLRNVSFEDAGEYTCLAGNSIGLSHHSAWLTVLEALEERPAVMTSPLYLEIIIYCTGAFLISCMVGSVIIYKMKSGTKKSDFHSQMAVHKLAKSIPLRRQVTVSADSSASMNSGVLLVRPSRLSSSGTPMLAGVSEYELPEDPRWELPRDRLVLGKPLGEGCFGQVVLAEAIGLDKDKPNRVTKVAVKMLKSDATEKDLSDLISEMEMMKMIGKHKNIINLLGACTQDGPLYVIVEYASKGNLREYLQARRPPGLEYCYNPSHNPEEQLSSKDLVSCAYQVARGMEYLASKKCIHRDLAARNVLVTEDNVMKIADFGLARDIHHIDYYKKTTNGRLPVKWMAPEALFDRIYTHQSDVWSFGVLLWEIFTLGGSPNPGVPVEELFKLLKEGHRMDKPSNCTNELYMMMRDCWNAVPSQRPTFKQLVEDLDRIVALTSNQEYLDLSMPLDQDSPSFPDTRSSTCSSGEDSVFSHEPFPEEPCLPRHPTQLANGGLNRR
Conditions: not given
(Tetrazolium assays rely on reduction of a dye to a coloured formazan, in cell work by metabolically active cells.)
For `Cc1nc(OCc2cn(C3CCN(Cc4ccccc4)CC3)nn2)nc(C)c1N`, the Activity entry was “inactive”.

For the molecule `Cc1c(COc2ncc(Cl)cn2)nnn1C1CCN(CC2CC2)CC1`, the Activity entry was “inactive”.

System in another data set: not listed separately
Put plainly: Clearance in Sprague-Dawley rat at 1 mg/kg, iv. In kind it is ADME, organism-based. To be noted: in vivo.
Molecule `Clc1cnc(OCc2cn(C3CCN(CC4CC4)CC3)nn2)nc1` showed a clearance of 21.7 mL/min/kg.

System in a further data set: not listed separately
The data set can be described thus: Brain to plasma permeability coefficient, Kp of the compound in Sprague-Dawley rat at 1 mg/kg, iv measured after 1 hr. The conditions noted are these: brain and plasma. In kind it is ADME, organism-based.
Regarding `Clc1cnc(OCc2cn(C3CCN(CC4CC4)CC3)nn2)nc1`, the Kp at 1 h was found to be 1.1.

System in the next data set: not listed separately
The data set can be described thus: Metabolic stability in human liver microsomes assessed as metabolic turnover rate per mg protein in presence of NADPH. In kind it is ADME, Microsome.
Conditions: not given
Turning to `Cc1ccc(OCc2cn(C3CCN(CC4CC4)CC3)nn2)nn1`, the Drug metabolism was determined as 34 pmol/min.

`Cc1cnc(OCc2cn(C3CCN(Cc4ccccc4)CC3)nn2)nc1`: the Drug metabolism is given as 40 pmol/min.

Regarding `Cc1ccc(OCc2cn(C3CCN(Cc4ccccc4)CC3)nn2)nn1`, the Drug metabolism worked out at 45 pmol/min.

With `Cc1nc(OCc2cn(C3CCN(Cc4ccccc4)CC3)nn2)nc(C)c1N`, the Drug metabolism was 19 pmol/min.

With `Clc1cnc(OCc2cn(C3CCN(Cc4ccccc4)CC3)nn2)nc1`, the Drug metabolism stood at 86 pmol/min.

Regarding `Cc1nc(OCc2cn(C3CCN(CC4CC4)CC3)nn2)nc(C)c1N`, the Drug metabolism is less than 10 pmol/min.

`Cc1nc(OCC(=O)N(C)C2CCN(Cc3ccccc3)CC2)nc(C)c1N`: the Drug metabolism was less than 10 pmol/min.

As for `Cc1c(COc2ncc(Cl)cn2)nnn1C1CCN(CC2CC2)CC1`, the Drug metabolism is less than 10 pmol/min.

Regarding `Clc1cnc(OCc2cn(C3CCN(CC4CC4)CC3)nn2)nc1`, the Drug metabolism came to 24 pmol/min.

System in another data set: not listed separately
Put plainly: Elimination half life in Sprague-Dawley rat at 1 mg/kg, iv. In kind it is ADME, organism-based. The conditions noted are these: in vivo, read-out: beta t1/2 (converted).
`Clc1cnc(OCc2cn(C3CCN(CC4CC4)CC3)nn2)nc1`: the half-life is 1.6 h.

The next data set concerns the target Fibroblast growth factor receptor 1 (Rattus norvegicus) (UniProt Q04589). The data set can be described thus: Modulation of FGFR in Wistar rat neuronal cells assessed as protection against glutamate-induced toxicity at 10 uM pretreated for 24 hrs followed by glutamate-stimulation and measured after 24 hrs by CCK8 assay relative to SUN13837.
Conditions: not given
In kind it is cell-based.
For `Cc1ccc(OCc2cn(C3CCN(CC4CC4)CC3)nn2)nn1`, the Activity was determined as 118%.

As to `Cc1cnc(OCc2cn(C3CCN(Cc4ccccc4)CC3)nn2)nc1`, the Activity turned out to be 66%.

Regarding `Cc1ccc(OCc2cn(C3CCN(Cc4ccccc4)CC3)nn2)nn1`, the Activity is 135%.

For the molecule `Cc1nc(OCc2cn(C3CCN(Cc4ccccc4)CC3)nn2)nc(C)c1N`, the Activity worked out at 134%.

Turning to `Cc1cnc(OCc2cn(C3CCN(CC4CC4)CC3)nn2)nc1`, the Activity was determined as 100%.

As for `Clc1cnc(OCc2cn(C3CCN(Cc4ccccc4)CC3)nn2)nc1`, the Activity was found to be 43%.

As for `Cc1nc(OCc2cn(C3CCN(CC4CC4)CC3)nn2)nc(C)c1N`, the Activity is 116%.

As to `Cc1c(COc2ncc(Cl)cn2)nnn1C1CCN(CC2CC2)CC1`, the Activity is 311%.

Turning to `Cc1ccc(OCc2cnnn2C2CCN(Cc3ccccc3)CC2)nn1`, the Activity turned out to be 73%.

Consider `Clc1cnc(OCc2cn(C3CCN(CC4CC4)CC3)nn2)nc1`, for which the Activity is 162%.

System in another data set: not listed separately
Put plainly: Lipophilicity, log P of the compound by RP-HPLC analysis. In kind it is physicochemical.
Conditions: not given
In turn, `Cc1ccc(OCc2cn(C3CCN(CC4CC4)CC3)nn2)nn1` came in with a logP of 1.4.

Molecule `Cc1cnc(OCc2cn(C3CCN(Cc4ccccc4)CC3)nn2)nc1` yielded a logP of 4.

Turning to `Cc1ccc(OCc2cn(C3CCN(Cc4ccccc4)CC3)nn2)nn1`, the log partition coefficient (logP) is 3.5.

Molecule `Cc1nc(OCc2cn(C3CCN(Cc4ccccc4)CC3)nn2)nc(C)c1N` returned a logP of 3.

For the molecule `Cc1cnc(OCc2cn(C3CCN(CC4CC4)CC3)nn2)nc1`, the logP was found to be 1.7.

In turn, `Clc1cnc(OCc2cn(C3CCN(Cc4ccccc4)CC3)nn2)nc1` had a logP of 5.

`Cc1nc(OCc2cn(C3CCN(CC4CC4)CC3)nn2)nc(C)c1N`: the logP turned out to be 1.4.

`Cc1nc(OCC(=O)N(C)C2CCN(Cc3ccccc3)CC2)nc(C)c1N` had a logP of 2.3.

`Cc1c(COc2ncc(Cl)cn2)nnn1C1CCN(CC2CC2)CC1` had a logP of 2.4.

`Cc1ccc(OCc2cnnn2C2CCN(Cc3ccccc3)CC2)nn1`: the logP was 3.8.

In turn, `Clc1cnc(OCc2cn(C3CCN(CC4CC4)CC3)nn2)nc1` had a logP of 2.6.

System in a further data set: not listed separately
Put plainly: AUC in Sprague-Dawley rat at 5 mg/kg, po. To be noted: in vivo. In kind it is ADME, organism-based.
`Cc1c(COc2ncc(Cl)cn2)nnn1C1CCN(CC2CC2)CC1`: the AUC was found to be 4520 ng·h/mL.

The molecule `Clc1cnc(OCc2cn(C3CCN(CC4CC4)CC3)nn2)nc1` came in with an AUC of 2120 ng·h/mL.

System in a further data set: not listed separately
The data set can be described thus: Elimination half life in Sprague-Dawley rat at 3 mg/kg, iv. In kind it is ADME, organism-based. The conditions noted are these: in vivo, read-out: beta t1/2 (converted).
As for `Cc1c(COc2ncc(Cl)cn2)nnn1C1CCN(CC2CC2)CC1`, the half-life was 4 h.

System in another data set: not listed separately
Put plainly: Oral bioavailability in Sprague-Dawley rat at 5 mg/kg. In kind it is ADME, organism-based. To be noted: in vivo.
The molecule `Cc1c(COc2ncc(Cl)cn2)nnn1C1CCN(CC2CC2)CC1` registered a bioavailability of 57%.

Consider `Clc1cnc(OCc2cn(C3CCN(CC4CC4)CC3)nn2)nc1`, for which the bioavailability worked out at 58%.
